Measured values taken from US10434167B2 (priority 2014, dated 2019).

System: Human red blood cells
Experiment: Hemolytic assay (hemolysis of red blood cells by QS-21/saponin with or without liposomes)
Type: cell-based
Settings: 22° C.
Description: Hemolysis of red blood cells was used as a measure both of the relative amount of free QS-21, and of the toxicity of QS-21 under the indicated experimental conditions. Human red blood cells were purchased from the Research Blood Components LLC (Boston, Mass., USA) under a Walter Reed Army institute of Research protocol reviewed by the independent Institutional Review Board, Division of Human Subjects. Erythrocytes were washed with PBS and were quantified by a Beckman Coulter counter model ACT10 (Indianapolis Ind., USA). In each assay of this study, hemolytic activity of QS-21 incubated with or without liposomes was determined in 220 μl volume and each step of the assay was performed at room temperature (22° C.). One hundred microliters of QS-21 dilution was incubated with 100 μl of liposomes, or PBS only, on a Daigger Rocker (Vernon Hills, Ill., USA) for 15 minutes. After mixing the liposomes, 2×10^7 erythrocytes in 20 μl of PBS were added to the mixture and incubated on a Daigger Rocker for an additional 30 minutes. Plates were centrifuged at 800×g for 6 min. Supernatant was transferred to a polystyrene 96-well plate, and absorbance was read at 541 nm. Hemolysis by QS-21 binding to liposomal Chol was expressed as % of maximum hemolysis by free QS-21.
The hemolytic activities of liposome compositions with QS-21 were characterized first by varying QS-21 concentration. […] Red blood cells were added to the mixture of liposome-QS-21, and incubated for 30 minutes. Free QS-21 served as positive control. Cells were centrifuged and the optical density of supernatant was measured at 541 nm to reflect the levels of hemolysis.

## QS-21
QS-21 pre-incubated with DMPC/DMPG liposomes (5 μmol phospholipids) containing 33.7 mol % Chol
  amount of QS-21 causing maximum hemolysis: approximately 4 μg
QS-21 pre-incubated with DMPC/DMPG liposomes (5 μmol phospholipids) containing 43 mol % Chol
  amount of QS-21 causing maximum hemolysis: approximately 4 μg
QS-21 pre-incubated with DMPC/DMPG liposomes (5 μmol phospholipids) having 55 mol % Chol
  amount of QS-21 up to which the hemolytic effect was completely blocked: ≥ 200 µg
Free QS-21, no liposomes
  amount of QS-21 causing maximum hemolysis: approximately 2 μg
